Results reported in US12077503B2, “Substituted cyclic amides and their use as herbicides” (FMC CORPORATION, priority 2015, dated 2024).

Experiments:
Assay type in all cases: in vivo
[1] = test system: blackgrass (Alopecurus myosuroides); experiment: Test A postemergence
In short: (§1)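 Each rating is a visual injury score from 0 to 100 given about 10 d after treatment, judged against untreated controls kept alongside in the greenhouse. In loam soil–sand blend, seeds got a preemergence directed soil spray, while postemergence plants were 2 to 10 cm tall at spraying.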

[2] = test system: Kochia (Kochia scoparia); experiment: Test A postemergence
In short: as §1

[3] = test system: corn (Zea mays); experiment: Test A postemergence
In short: as §1

[4] = test system: barnyardgrass (Echinochloa crus-galli); experiment: Test A postemergence
In short: as §1

[5] = test system: ragweed (common ragweed, Ambrosia elatior); experiment: Test A postemergence
In short: as §1

[6] = test system: ryegrass, Italian (Italian ryegrass, Lolium multiflorum); experiment: Test A postemergence
In short: as §1

[7] = test system: giant foxtail (Setaria faberii); experiment: Test A postemergence
In short: as §1

[8] = test system: pigweed (Amaranthus retroflexus); experiment: Test A postemergence
In short: as §1

[9] = test system: Galium (catchweed bedstraw, Galium aparine); experiment: Test A postemergence
In short: as §1

[10] = test system: wheat (Triticum aestivum); experiment: Test A postemergence
In short: as §1

[11] = test system: barnyardgrass (Echinochloa crus-galli); experiment: Test B flooded paddy test; conditions: Flood, 250 g ai/ha; 0 to 100 scale where 0 is no effect and 100 is complete control; 13 to 15 d
In short: (§2)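 Response scored visually against untreated controls, 0 = no effect and 100 = complete control, 13–15 d after treatment in the greenhouse. Compounds added to paddy water held 3 cm above soil surface. Treatment given at 2-leaf stage.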

[12] = test system: sedge, umbrella (small-flower umbrella sedge, Cyperus difformis); experiment: Test B flooded paddy test; conditions: Flood, 250 g ai/ha; 0 to 100 scale where 0 is no effect and 100 is complete control; 13 to 15 d
In short: as §2

[13] = test system: rice (Oryra sativa); experiment: Test B flooded paddy test; conditions: Flood, 250 g ai/ha; 0 to 100 scale where 0 is no effect and 100 is complete control; 13 to 15 d
In short: as §2

[14] = test system: ducksalad (Heteranthera limosa); experiment: Test B flooded paddy test; conditions: Flood, 250 g ai/ha; 0 to 100 scale where 0 is no effect and 100 is complete control; 13 to 15 d
In short: as §2

[15] = test system: soybean (Glycine max); experiment: Test C preemergence; conditions: for Plant response rating (scale of 0 to 100), Soybean: 31 g ai/ha, 0 is no effect, 100 is complete control; for Plant response rating, Soybean: scale 0 to 100, 0 no effect, 100 complete control
In short: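 Visual 0 (no effect) to 100 (complete control) ratings versus controls, taken 13–15 d after treatment in the greenhouse; dash means no result. Compounds in a surfactant-containing non-phytotoxic solvent blend were applied preemergence to seeds in loam-sand soil or postemergence to 1- to 4-leaf plants (2–18 cm) in peat-based medium.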

[16] = test system: Kochia (Kochia scoparia); experiment: Test A preemergence
In short: as §1

[17] = test system: barnyardgrass (Echinochloa crus-galli); experiment: Test A preemergence
In short: as §1

[18] = test system: ragweed (common ragweed, Ambrosia elatior); experiment: Test A preemergence
In short: as §1

[19] = test system: ryegrass, Italian (Italian ryegrass, Lolium multiflorum); experiment: Test A preemergence
In short: as §1

[20] = test system: giant foxtail (Setaria faberii); experiment: Test A preemergence
In short: as §1

[21] = test system: pigweed (Amaranthus retroflexus); experiment: Test A preemergence
[22] = 125 g ai/ha, postemergence, visual injury rating on 0 to 100 scale (0 no effect, 100 complete control), approx. 10 d
[23] = Postemergence, 500 g ai/ha, 0 to 100 scale where 0 is no effect and 100 is complete control
[24] = 125 g ai/ha, Preemergence, visual injury after approximately 10 d, 0 to 100 scale where 0 is no effect and 100 is complete control
[25] = Preemergence, 500 g ai/ha, visual injury approx. 10 d
[26] = 125 g ai/ha, postemergence, visual rating after approx. 10 d, 0 to 100 scale (0 no effect, 100 complete control)
[27] = 500 g ai/ha, preemergence, 0 to 100 scale, 0 = no effect, 100 = complete control

| Structure (SMILES) | Plant response rating, Blackgrass [1, 23] | Plant response rating, Kochia [2, 23] | Plant response rating, Corn [3, 23] | Plant response rating, Barnyardgrass [4, 23] | Plant response rating, Ragweed [5, 23] | Plant response rating, Ryegrass, Italian [6, 23] | Plant response rating, Foxtail, Giant [7, 23] | Plant response rating, Pigweed [8, 23] | Plant response rating, Galium [9, 23] | Plant response rating, Wheat [10, 23] | Plant response rating, Barnyardgrass [11] | Plant response rating, Sedge, Umbrella [12] | Plant response rating, Rice [13] | Plant response rating, Ducksalad [14] | Plant response rating (scale of 0 to 100), Soybean [15] | Plant response rating, Soybean ([15]; 62 g ai/ha) | Plant response rating, Soybean ([15]; 125 g ai/ha) | Plant response rating, Soybean ([15]; 250 g ai/ha) | Plant response rating, Kochia [16, 24] | Plant response rating, Barnyardgrass [17, 24] | further results |
| --- | --- | --- | --- | --- | --- | --- | --- | --- | --- | --- | --- | --- | --- | --- | --- | --- | --- | --- | --- | --- | --- |
| O=C1NCC(c2cc(F)cc(Cl)c2)C1C(=O)Nc1cccc(F)c1F (stereo not drawn) [Compound 492] | 70 | 60 | 80 | 90 | 70 | 50 | 90 | 60 | 60 | 60 | 65 | 0 | 25 | 100 | 50 | 0 | 40 | 0 | 60 | 90 | Blackgrass plant response rating [1, 22]: 50; Kochia plant response rating [2, 22]: 40; Corn plant response rating [3, 22]: 70; Barnyardgrass plant response rating [4, 22]: 90; Ragweed plant response rating [5, 22]: 30; Ryegrass, Italian plant response rating [6, 22]: 20; Foxtail, Giant plant response rating [7, 22]: 90; Pigweed plant response rating [8, 22]: 40; Galium plant response rating [9, 22]: 50; Wheat plant response rating [10, 22]: 20; Kochia plant response rating (0 to 100 scale, 0 is no effect, 100 is complete control) [16, 25]: 70; Barnyardgrass plant response rating (0 to 100 scale, 0 is no effect, 100 is complete control) [17, 25]: 90; Plant response rating, Ragweed [18, 24]: 30; Ragweed plant response rating (0 to 100 scale, 0 is no effect, 100 is complete control) [18, 25]: 80; Plant response rating, Ryegrass, Italian [19, 24]: 50; Ryegrass, Italian plant response rating (0 to 100 scale, 0 is no effect, 100 is complete control) [19, 25]: 50; Plant response rating, Foxtail, Giant [20, 24]: 90; Foxtail, Giant plant response rating (0 to 100 scale, 0 is no effect, 100 is complete control) [20, 25]: 90; Plant response rating, Pigweed [21, 24]: 0; Pigweed plant response rating (0 to 100 scale, 0 is no effect, 100 is complete control) [21, 25]: 70 |
| CN1CC(c2ccc(F)c(C(F)(F)F)c2)C(C(=O)Nc2cccc(F)c2F)C1=O (stereo not drawn) [Compound 613] | 60 | 70 | 80 | 90 | 30 | 60 | 90 | 70 | 60 | 50 | 80 | 75 | 10 | 98 | 0 | 0 | 0 | 0 | 60 | 90 | Plant response rating, Blackgrass [1, 26]: 40; Plant response rating, Kochia [2, 26]: 60; Plant response rating, Corn [3, 26]: 50; Plant response rating, Barnyardgrass [4, 26]: 70; Plant response rating, Ragweed [5, 26]: 20; Plant response rating, Ryegrass, Italian [6, 26]: 60; Plant response rating, Foxtail, Giant [7, 26]: 90; Plant response rating, Pigweed [8, 26]: 50; Plant response rating, Galium [9, 26]: 60; Plant response rating, Wheat [10, 26]: 40; Plant response rating, Kochia [16, 27]: 70; Plant response rating, Barnyardgrass [17, 27]: 90; Plant response rating, Ragweed [18, 24]: 60; Plant response rating, Ragweed [18, 27]: 60; Plant response rating, Ryegrass, Italian [19, 24]: 70; Plant response rating, Ryegrass, Italian [19, 27]: 80; Plant response rating, Foxtail, Giant [20, 24]: 90; Plant response rating, Foxtail, Giant [20, 27]: 90; Plant response rating, Pigweed [21, 24]: 70; Plant response rating, Pigweed [21, 27]: 70 |
| CN1CC(c2cccc(OC(F)F)c2)C(C(=O)Nc2ccccc2F)C1=O (stereo not drawn) [Compound 618] | 60 | 60 | 80 | 90 | 20 | 50 | 90 | 30 | 60 | 70 | 85 | 0 | 10 | 100 | 0 | 10 | 0 | 0 | 90 | 90 | Plant response rating, Blackgrass [1, 26]: 50; Plant response rating, Kochia [2, 26]: 40; Plant response rating, Corn [3, 26]: 80; Plant response rating, Barnyardgrass [4, 26]: 90; Plant response rating, Ragweed [5, 26]: 0; Plant response rating, Ryegrass, Italian [6, 26]: 40; Plant response rating, Foxtail, Giant [7, 26]: 90; Plant response rating, Pigweed [8, 26]: 0; Plant response rating, Galium [9, 26]: 50; Plant response rating, Wheat [10, 26]: 50; Plant response rating, Kochia [16, 27]: 90; Plant response rating, Barnyardgrass [17, 27]: 90; Plant response rating, Ragweed [18, 27]: 70; Plant response rating, Ryegrass, Italian [19, 24]: 50; Plant response rating, Ryegrass, Italian [19, 27]: 90; Plant response rating, Foxtail, Giant [20, 24]: 90; Plant response rating, Foxtail, Giant [20, 27]: 100; Plant response rating, Pigweed [21, 24]: 50; Plant response rating, Pigweed [21, 27]: 90 |
| CN1CC(c2ccc(C(F)(F)F)cc2)C(C(=O)Nc2ccccc2S(C)(=O)=O)C1=O (stereo not drawn) [Compound 624] | 50 | 60 | 40 | 90 | 0 | 30 | 90 | 60 | 50 | 70 | 70 | 0 | 20 | 100 | 0 | 0 | 15 | 40 | 40 | 90 | Plant response rating, Blackgrass [1, 26]: 40; Plant response rating, Kochia [2, 26]: 0; Plant response rating, Corn [3, 26]: 0; Plant response rating, Barnyardgrass [4, 26]: 80; Plant response rating, Ragweed [5, 26]: 0; Plant response rating, Ryegrass, Italian [6, 26]: 30; Plant response rating, Foxtail, Giant [7, 26]: 80; Plant response rating, Pigweed [8, 26]: 20; Plant response rating, Galium [9, 26]: 30; Plant response rating, Wheat [10, 26]: 20; Plant response rating, Kochia [16, 27]: 60; Plant response rating, Barnyardgrass [17, 27]: 90; Plant response rating, Ragweed [18, 24]: 60; Plant response rating, Ragweed [18, 27]: 70; Plant response rating, Ryegrass, Italian [19, 24]: 40; Plant response rating, Ryegrass, Italian [19, 27]: 40; Plant response rating, Foxtail, Giant [20, 24]: 90; Plant response rating, Foxtail, Giant [20, 27]: 90; Plant response rating, Pigweed [21, 24]: 80; Plant response rating, Pigweed [21, 27]: 80 |
